According to PubChem BioAssay AID2060487 (Molecular Pharmacology Branch, DTP, NCI, 2025):

System: 997537-175-T-J1-PDC complex spheroid viability
Assay: Anticancer human tumor 997537-175-T-J1-PDC patient-derived colon adenocarcinoma cell line growth inhibition [GQUAD]
Conditions: for IC50: curve of first compound; for viability, T/C: stronger effect = lower value
Excerpt: DNA G-quadruplex Stabilizer Agents in Combinations in Complex Spheroids
A high-throughput screen of multi-cell type tumor spheroids was designed to identify active combinations of DNA G-quadruplex stabilizer agents and targeted small molecules. Complex spheroids include a stromal component modeled by human endothelial cells (HUVEC) and fibroblasts modeled by human mesenchymal stem cells (MSCs). The concentration ranges selected for each drug and investigational agent were based upon clinically achievable concentrations if the clinical Cmax of the agent was known.
Compounds. The drugs and investigational agents: pidnarulex (CX-5461; NSC782164), APTO-253 (NSC789042), BRACO-19 (NSC847499), peposertib (NSC802822), ceralasertib (NSC780249), elimusertib (NSC800525), camonsertib (NSC841442), AZD-1390 (NSC803789), olaparib (NSC753686), talazoparib (NSC767125), ART-558 (NSC835418), sotorasib (NSC818433), MRTX-1133 (NSC836407), SN-38 (NSC673596), topotecan (NSC609699), etoposide (NSC141540), doxorubicin (NSC123127), gemcitabine (NSC613327), 5-fluorouracil (NSC19893), paclitaxel (NSC125973), vemurafenib (NSC761431), panobinostat (NSC761190), R-306465 (JNJ-16241199; NSC773264), adavosertib (NSC754352), TP-3654 (NSC805149), carboplatin (NSC241240), KSQ-4279 (NSC840948), and staurosporine (NSC755774) were obtained from the National Cancer Institute (NCI) Developmental Therapeutics Program Chemical Repository (34). The FDA-approved anticancer drug set is available from the NCI Developmental Therapeutics Program. […] The stock solutions were prepared in dimethyl sulfoxide (DMSO, Sigma-Aldrich, St. Louis, MO, cat. D2650) at 800-fold the tested concentration and stored at -70 degrees C prior to their use. All drugs and investigational agents were tested over a range starting from a high concentration at or near the clinical Cmax and decreasing in half-log increments. If the clinical Cmax for an agent had not been determined, the highest concentration tested was 10 microM.
2.3 Cell Culture. All cells were maintained in an incubator at 37 degrees C and 5% CO2 with 95% humidity. The PDC lines were cultured according to standard operating procedures established by the NCI PDMR. All PDCs were thawed and cultured in Matrigel-coated flasks prepared with a working solution of 1X Ham's F-12 nutrient mix, without supplementation (Invitrogen, cat. 11765054), 100 U/mL penicillin-streptomycin (Invitrogen, cat. 15140122), and 2.5% Matrigel (Corning Inc., cat. 354248) for the first three passages. The 857933-349-R-J2-PDC line was cultured in 6C/Colon 1B media, which includes advanced DMEM/F-12 (Thermo Fisher Scientific, cat. 12634028), 10 mM HEPES (Thermo Fisher Scientific, cat. 15630080), 1X GlutaMAX supplement (Thermo Fisher Scientific, cat. 35050061), 0.1 mg/mL primocin (InvivoGen, cat. ant-pm-2), 10% defined fetal bovine serum, heat inactivated (HyClone Laboratories Inc., cat. SH30070.03HI), 50% L-WRN conditioned media (ATCC, cat. CRL-3276), 1.25 mM N-Acetyl-L-cysteine (Sigma-Aldrich, cat. A9165), 10 mM nicotinamide (Sigma-Aldrich, cat. N0636), 1X B-27 supplement (Thermo Fisher Scientific, cat. 17504044), 1X N-2 supplement (Thermo Fisher Scientific, cat. 17502048), 10 microM Y-27632 dihydrochloride (Tocris Bioscience, cat. 1254), and 50 ng/mL human EGF recombinant protein (Thermo Fisher Scientific, cat. PHG0311). The 485176-168-R4-J1-PDC line was cultured in Panc media, which includes all 6C/Colon 1B media components plus 100 ng/mL human FGF-10 (Thermo Fisher Scientific, cat. 100-26), 500 nM SB-431542 (Selleckchem, cat. S1067), and gastrin (Tocris, cat. 3006).
[…]

[1] = second compound 0.0316 µM, first compound 0.0316 µM
[2] = second compound 0.0316 µM, first compound 0.1 µM
[3] = second compound 0.0316 µM, first compound 0.316 µM
[4] = second compound 0.0316 µM, first compound 1 µM
[5] = second compound 0.0316 µM, first compound 3.16 µM
[6] = second compound 0.0316 µM, first compound 10 µM
[7] = second compound 0.1 µM, first compound 0.0316 µM
[8] = second compound 0.1 µM, first compound 0.1 µM
[9] = second compound 0.1 µM, first compound 0.316 µM
[10] = second compound 0.1 µM, first compound 1 µM
[11] = second compound 0.1 µM, first compound 3.16 µM
[12] = second compound 0.1 µM, first compound 10 µM
[13] = second compound 0.316 µM, first compound 0.0316 µM
[14] = second compound 0.316 µM, first compound 0.1 µM
[15] = second compound 0.316 µM, first compound 0.316 µM
[16] = second compound 0.316 µM, first compound 1 µM
[17] = second compound 0.316 µM, first compound 3.16 µM
[18] = second compound 0.316 µM, first compound 10 µM
[19] = second compound 1 µM, first compound 0.0316 µM
[20] = second compound 1 µM, first compound 0.1 µM
[21] = second compound 1 µM, first compound 0.316 µM
[22] = second compound 1 µM, first compound 1 µM
[23] = second compound 1 µM, first compound 3.16 µM
[24] = second compound 1 µM, first compound 10 µM
[25] = second compound 3.16 µM, first compound 0.0316 µM
[26] = second compound 3.16 µM, first compound 0.1 µM
[27] = second compound 3.16 µM, first compound 0.316 µM
[28] = second compound 3.16 µM, first compound 1 µM
[29] = second compound 3.16 µM, first compound 3.16 µM
[30] = second compound 3.16 µM, first compound 10 µM
[31] = second compound 10 µM, first compound 0.0316 µM
[32] = second compound 10 µM, first compound 0.1 µM
[33] = second compound 10 µM, first compound 0.316 µM
[34] = second compound 10 µM, first compound 1 µM
[35] = second compound 10 µM, first compound 3.16 µM
[36] = second compound 10 µM, first compound 10 µM
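Also: spheroids exposed to the agents for 7 days.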
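For viability, T/C in this document: 100% = DMSO vehicle control viability.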

Question: How did the IC50 (second compound 0.0316 µM) turn out when `CC(C)(O)C1CCC(Nc2ccc3ncc(-c4cccc(C(F)(F)F)c4)n3n2)CC1` (centres undefined) + Cc1[nH]c2ccc(F)cc2c1-c1nc2c3cccnc3c3ncccc3c2[nH]1 was run?
Answer: > 10 µM

Question: And the IC50 (second compound 0.1 µM)?
Answer: > 10 µM

Question: And the IC50 (second compound 0.316 µM)?
Answer: > 10 µM

Question: And the IC50 (second compound 1 µM)?
Answer: > 10 µM

Question: And the IC50 (second compound 3.16 µM)?
Answer: > 10 µM

Question: What about the IC50 (second compound 10 µM) of the same compound?
Answer: > 10 µM

Question: And the viability, T/C [1]?
Answer: 114%

Question: And the viability, T/C [2]?
Answer: 107%

Question: And the viability, T/C [3]?
Answer: 103%

Question: And the viability, T/C [4]?
Answer: 108%

Question: And the viability, T/C [5]?
Answer: 107%

Question: And the viability, T/C [6]?
Answer: 114%

Question: What about the viability, T/C [7] of the same compound?
Answer: 120%

Question: What about the viability, T/C [8] of the same compound?
Answer: 103%

Question: And the viability, T/C [9]?
Answer: 97.5%

Question: And the viability, T/C [10]?
Answer: 103%

Question: And the viability, T/C [11]?
Answer: 99.3%

Question: And the viability, T/C [12]?
Answer: 105%

Question: What about the viability, T/C [13] of the same compound?
Answer: 101%

Question: And the viability, T/C [14]?
Answer: 105%

Question: What about the viability, T/C [15] of the same compound?
Answer: 108%

Question: What about the viability, T/C [16] of the same compound?
Answer: 101%

Question: What about the viability, T/C [17] of the same compound?
Answer: 104%

Question: What about the viability, T/C [18] of the same compound?
Answer: 99.4%

Question: What about the viability, T/C [19] of the same compound?
Answer: 115%

Question: What about the viability, T/C [20] of the same compound?
Answer: 99%

Question: And the viability, T/C [21]?
Answer: 101%

Question: What about the viability, T/C [22] of the same compound?
Answer: 101%

Question: And the viability, T/C [23]?
Answer: 97.7%

Question: What about the viability, T/C [24] of the same compound?
Answer: 90.5%

Question: And the viability, T/C [25]?
Answer: 94.9%

Question: And the viability, T/C [26]?
Answer: 97.2%

Question: What about the viability, T/C [27] of the same compound?
Answer: 93.5%

Question: What about the viability, T/C [28] of the same compound?
Answer: 90.7%

Question: What about the viability, T/C [29] of the same compound?
Answer: 104%

Question: And the viability, T/C [30]?
Answer: 96.9%

Question: And the viability, T/C [31]?
Answer: 98.1%

Question: And the viability, T/C [32]?
Answer: 80.3%

Question: And the viability, T/C [33]?
Answer: 88.9%

Question: What about the viability, T/C [34] of the same compound?
Answer: 97.4%

Question: What about the viability, T/C [35] of the same compound?
Answer: 78.3%

Question: What about the viability, T/C [36] of the same compound?
Answer: 79.6%

Question: Which IC50 (second compound 0.0316 µM) does the source give for `COc1ccc([C@@H](O)c2cc(-c3ncnc4cc(N5CCOCC5)ccc34)c(F)cc2Cl)nn1` + Cc1[nH]c2ccc(F)cc2c1-c1nc2c3cccnc3c3ncccc3c2[nH]1 here?
Answer: > 10 µM

Question: What about the IC50 (second compound 0.1 µM) of the same compound?
Answer: > 10 µM

Question: And the IC50 (second compound 0.316 µM)?
Answer: > 10 µM

Question: What about the IC50 (second compound 1 µM) of the same compound?
Answer: 7.63 µM

Question: And the IC50 (second compound 3.16 µM)?
Answer: > 10 µM

Question: What about the IC50 (second compound 10 µM) of the same compound?
Answer: 8.49 µM

Question: What about the viability, T/C [1] of the same compound?
Answer: 90%

Question: What about the viability, T/C [2] of the same compound?
Answer: 98.5%

Question: What about the viability, T/C [3] of the same compound?
Answer: 93.9%

Question: And the viability, T/C [4]?
Answer: 80.4%

Question: What about the viability, T/C [5] of the same compound?
Answer: 80.5%

Question: What about the viability, T/C [6] of the same compound?
Answer: 60%

Question: What about the viability, T/C [7] of the same compound?
Answer: 110%

Question: What about the viability, T/C [8] of the same compound?
Answer: 86.2%

Question: What about the viability, T/C [9] of the same compound?
Answer: 92.3%

Question: What about the viability, T/C [10] of the same compound?
Answer: 60.7%

Question: What about the viability, T/C [11] of the same compound?
Answer: 106%

Question: And the viability, T/C [12]?
Answer: 48.8%

Question: What about the viability, T/C [13] of the same compound?
Answer: 86.8%

Question: And the viability, T/C [14]?
Answer: 98.9%

Question: And the viability, T/C [15]?
Answer: 100%

Question: And the viability, T/C [16]?
Answer: 81%

Question: And the viability, T/C [17]?
Answer: 98.9%

Question: What about the viability, T/C [18] of the same compound?
Answer: 67.8%

Question: And the viability, T/C [19]?
Answer: 74.3%

Question: And the viability, T/C [20]?
Answer: 81.4%

Question: And the viability, T/C [21]?
Answer: 95.4%

Question: And the viability, T/C [22]?
Answer: 72%

Question: What about the viability, T/C [23] of the same compound?
Answer: 86.6%

Question: And the viability, T/C [24]?
Answer: 40.1%

Question: What about the viability, T/C [25] of the same compound?
Answer: 72.4%

Question: What about the viability, T/C [26] of the same compound?
Answer: 71.9%

Question: What about the viability, T/C [27] of the same compound?
Answer: 51.2%

Question: What about the viability, T/C [28] of the same compound?
Answer: 92.2%

Question: What about the viability, T/C [29] of the same compound?
Answer: 95.9%

Question: What about the viability, T/C [30] of the same compound?
Answer: 54.7%

Question: And the viability, T/C [31]?
Answer: 66%

Question: And the viability, T/C [32]?
Answer: 88.5%

Question: What about the viability, T/C [33] of the same compound?
Answer: 73.1%

Question: What about the viability, T/C [34] of the same compound?
Answer: 73.1%

Question: And the viability, T/C [35]?
Answer: 80.4%

Question: And the viability, T/C [36]?
Answer: 45.7%
